Laboratory results: patent US5716928A, “Use of essential oils to increase bioavailability of oral pharmaceutical compounds” (priority 1995, dated 1998)

Test system: rat cytochrome P450 3A
Details: for % inhibition of cyclosporine metabolism, 0.001% (Table 2): oil ingredient 0.001 wt. %; for % inhibition of cyclosporine metabolism, 0.001% (Table 2) / % inhibition of cyclosporine metabolism, 0.01% (Table 2) / % inhibition of cyclosporine metabolism, 0.0001% (Table 2): from solvent baseline; for % inhibition of cyclosporine metabolism, 0.01% (Table 2): oil ingredient 0.01 wt. %; for % inhibition of cyclosporine metabolism, 0.0001% (Table 2) / % inhibition of cyclosporine metabolism, repeat 0.0001(SD) (Table 2): oil ingredient 0.0001 wt. %; for % inhibition of cyclosporine metabolism, repeat 0.0001(SD) (Table 2): repeat assay(s), SD in parentheses

Structure (SMILES)	% inhibition of cyclosporine metabolism, 0.001% (Table 2) [%]	% inhibition of cyclosporine metabolism, 0.01% (Table 2) [%]	% inhibition of cyclosporine metabolism, 0.0001% (Table 2) [%]	also measured
CC(=O)OC/C=C(\C)CCC=C(C)C [Geranyl Acetate, trans-3,7-Dimethyl-2,6-octadien-1-yl acetate]	51.5	73		
COC(=O)c1ccccc1N [Mcthyl Anthranilate, Methyl 2-aminobenzoate]	23		-7	
CC1(C)[C@H]2CC[C@](C)(C2)[C@H]1O [Fenchol-(1R)-endo-(+), 1,3,3-Trimethylbicyclo [2.2.1] heptan-2-ol]	74	100	18	
COc1cc(CNC(=O)CCCC/C=C/C(C)C)ccc1O [Capsaicin, trans-8-Methyl-N-vanillyl-6 nonenamide]	68		27	
CC(=O)N1CCN(c2ccc(OCC3COC(Cn4ccnc4)(c4ccc(Cl)cc4Cl)O3)cc2)CC1 (stereo not drawn) [Ketoconazole, reference compound]				% inhibition of cyclosporine metabolism, reference compound at 0.000001% (Table 3) (0.000001 %): 8%; % inhibition of cyclosporine metabolism, reference compound at 0.000005% (Table 3) (0.000005 %): 20%; % inhibition of cyclosporine metabolism, reference compound at 0.00001% (Table 3) (0.00001 %): 42%; % inhibition of cyclosporine metabolism, reference compound at 0.00005% (Table 3) (0.00005 %): 100%
C=CCc1ccc(O)c(OC)c1 [Eugenol, 4-Allyl-2-methoxyphenol]	66	100	9.8	
C=C1CC/C=C(\C)CC[C@@H]2[C@@H]1CC2(C)C [Caryophyllene, trans-(-), β Caryophyllene]	85		26	
CC(C)=C1CC[C@@H](C)CC1=O [Pulegone-(R)-(+), p-Menth-4(8)-en-3-one]	31		-17	
O=C(/C=C/c1ccccc1)OCc1ccccc1 [Benzyl Cinnamate, Benzyl 3-phenylpropenoic acid]	-45		7	
CCOc1cc(C=O)ccc1O [Ethyl Vanillin, 3-Ethoxy-4-hydroxybenzaledhyde]		58		
O=C/C=C/c1ccccc1 [Cinnamic Aldehyde, trans-, 3-Phenylpropenaldehyde]	29.0	78		
CC(C)=CCC/C(C)=C/C=O [Citral]	54	99	44	
CC(C)=CCC/C(C)=C/CC/C(C)=C/CO [Farnesol. trans-, trans-, 3,7,11-Trimethyl-2,6,10-dodecatrien-1-ol]	82		49	
C=CC(=C)CCC=C(C)C [Myrcene-β, 7-Methyl-3-methylene-1,6-octadiene]	13		0	
CC1=CCC(O)(C(C)C)CC1 (stereo not drawn) [Terpinen-4-ol, p-Menth-1-en-4-ol]	80	100	3.81	
CC(C)[C@@H]1CC[C@@H](C)CC1=O [Menthone-(-), p-Menthan-3-one]	52		14	
CC1=CC=C(C(C)C)CC1 [Terpinene-α, p-Mentha-1,3-diene]	28		-6	
CC1(C)C(=O)[C@]2(C)CC[C@H]1C2 [Fenchone-(1R)-(-), 1,3,3-Trimethylbicyclo [2.2.1] heptan-2-one]	38		14	
C=C(C)[C@@H]1CC=C(C)CC1 [Limonene-(S)-(-), p-Mentha-1,8-diene]	30	82.3		

Structure (SMILES)	% inhibition of cyclosporine metabolism, 0.001% (Table 2) [%]	% inhibition of cyclosporine metabolism, 0.01% (Table 2) [%]	% inhibition of cyclosporine metabolism, 0.0001% (Table 2) [%]	also measured
CCC=CCC1C(=O)CCC1CC(=O)OC (racemic) [Methyl Jasmonate-(±), Methyl-3-oxo-2-(2-pentenyl)-cyclopentane acetate]	65		-27	
CC12CCC(CC1=O)C2(C)C (racemic) [Camphor-(±), 1,7,7-Trimethylbicyclo [2.2.1] heptan-2-one]				% inhibition of cyclosporine metabolism, repeat 0.001 (SD) (Table 2) (microsomes): 53(3) %
Cc1ccc(C(C)C)cc1O [Carvacrol, 5-isoPropyl-2-methylphenol]	93	97	11	
C=C1C2CCC(C2)C1(C)C (single isomer, unassigned) [Camphene-(+), 2,2-Dimethyl-3-methylenebicyclo[2.2.1]heptane]	12.4		-49	
C=C(C)[C@H]1CC=C(C)CC1 [Limonene-(R)-(+), p-Mentha-1,8-diene]	20	84		
CC1=CCC(C(C)(C)O)CC1 (stereo not drawn) [Terpineol-α, p-Menth-1-en-8-ol]	86	100	13.4	
C=CC(C)(O)CCC=C(C)C (racemic) [Linalool-(±), 3,7-Dimethyl-1,6-octadien-3-ol]	72.0	85	41	% inhibition of cyclosporine metabolism, repeat 0.0001(SD) (Table 2): -7(9) %
C=C(C)[C@@H]1CC=C(C)C(=O)C1 [Carvone-(R)-(-), p-Mentha-6,8-dien-2-one]	69	100	27	
C=CC(C)(CCC=C(C)C)OC(C)=O (stereo not drawn) [Linalyl Acetate, 3,7-Dimethyl-1,6-octadien-3-yl acetate]	55.8	100		
C=C1CC[C@H]2C[C@@H]1C2(C)C [Pinene-(1S)-(-)-β, 6,6-Dimethyl-2-methylenebicyclo[3.1.1]heptane]	60	88	-10	
CCOC(=O)/C=C/c1ccccc1 [Ethyl Cinnamate, trans-, Ethyl 3-phenylpropenoic acid]	-16		-13	
CC(C)=CCCC(C)CCO (stereo not drawn) [Citronellol-(DL)-(β), 3,7-Dimethyl-6-octen-1-ol]	86	95	41	% inhibition of cyclosporine metabolism, repeat 0.0001(SD) (Table 2): 35(4) %
CC/C=C\CC1=C(C)CCC1=O [Jasmone, cis-, 3-Methyl-2-(2-pentenyl)-2-cyclopenten-1-one]	68		16.0	
C=C(C)C1CC=C(C)C(O)C1 (single isomer, unassigned) [Carveol-(-), p-Mentha-6,8-dien-2-ot]	60		2	
C=C(C)[C@H]1CC=C(C)C(=O)C1 [Carvone-(S)-(+), p-Mentha-6,8-dien-2-one]	70.5		30	
CC=C(C)C=CC=C(C)C [Allo Ocimene, 2,6-Dimethyl-2,4,6-octatriene]	22		6	
C/C=C/c1ccc(OC)cc1 [Anethole, trans-, 4-Propenylanisole]	53	100		
C=CCc1ccc(OC)cc1 [Estragole, 4-Allylanisole]	69.2	100	7	
